Data on 1 molecule can be found in US5438052A, “Cephalosporin derivatives” (Hoffmann-La Roche Inc., priority 1991, dated 1995).

The subject of one test is C. freundii 902. As to the kind of experiment: Minimum inhibitory concentration in vitro, agar dilution method. It is filed as cell-based. Particulars: Citrobacter freundii, 902. An excerpt: (§1) 1. Minimum Inhibitory Concentration in vitro
(§2) The activities ascertained, minimum inhibitory concentration (MIC) in μg/ml, are compiled in Table 1 hereinafter: […]

In a further test the test system is E. aerogenes CF153. Described as above. It counts as cell-based. The following applies: Klebsiella aerogenes, CF153.
Source text: as §1, §2

For another test, the system named is E. cloacae 908R. Described as above. It counts as cell-based. The following applies: Enterobacter cloacae, 908R.
Source text: as §1, §2

Another test concerns E. cloacae 908SSi. The test is described as above. It counts as cell-based. Particulars: Enterobacter cloacae, 908SSI.
Source text: as §1, §2

The test system of another test is E. cloacae P99. The test is described as above. It counts as cell-based. Particulars: Enterobacter cloacae.
Source text: as §1, §2

Test [1] relates to E. coli 25922. Described as above. It is filed as cell-based. The following applies: Escherichia coli, 25922.
Source text: as §1, §2

Another test has as its system K. oxytoca 1082. The description is as above. It is filed as cell-based. The following applies: Klebsiella oxytoca, 1082.
Source text: as §1, §2

The test system of another test is K. pneumoniae 418. The description is as above. It counts as cell-based. The following applies: Klebsiella pneumoniae, 418.
Source text: as §1, §2

In the next test the test system is P. aeruginosa 27853. Described as above. It counts as cell-based. Particulars: Pseudomonas aeruginosa, 27853.
Source text: as §1, §2

The next test has as its system P. aeruginosa 799/61. The description is as above. It counts as cell-based. Particulars: Pseudomonas aeruginosa, 799/61.
Source text: as §1, §2

For a further test, the system named is P. aeruginosa 799/WT. Described as above. Particulars: Pseudomonas aeruginosa, 799/WT. It counts as cell-based.
Source text: as §1, §2

Another test has as its system P. aeruginosa BA. Described as above. It counts as cell-based. The following applies: Pseudomonas aeruginosa.
Source text: as §1, §2

In another test the test system is P. aeruginosa MK1184. The test is described as above. It is filed as cell-based. The following applies: Pseudomonas aeruginosa, MK1184.
Source text: as §1, §2

A further test concerns P. mirabilis 2117. The description is as above. It is filed as cell-based. Particulars: Proteus mirabilis, 2117.
Source text: as §1, §2

Another test relates to P. vulgaris 1028. The test is described as above. It is filed as cell-based. The following applies: Proteus vulgaris, 1028.
Source text: as §1, §2

For the next test, the system named is S. aureus 6538. The test is described as above. The following applies: Staphylococcus aureus, 6538. It is filed as cell-based.
Source text: as §1, §2

Another test has as its system S. marcescens 69438. Described as above. It is filed as cell-based. Particulars: Serratia marcescens, 69438.
Source text: as §1, §2

For a further test, the system named is S. pyogenes 15. The description is as above. It is filed as cell-based. The following applies: Streptococcus pyogenes, 15.
Source text: as §1, §2

In test [2] the test system is E. coli 25922. The experiment in a line: Experimental systemic septicaemia in the mouse. It counts as in vivo. Particulars: Escherichia coli, 25922, sc, 96 h. In outline:
(§3)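 ED50 in mg/kg s.c. is the Probit-derived dose protecting half the mice, judged on survival 4 days after i.p. challenge (about 5-100× 48 h LD50) in 16-20 g albino mice, 5 per group. Dosing was s.c. in 2% Tween 80 at 1 and 3 h, plus 5 h for P. aeruginosa.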

In test [3] the test system is Pseudomonas aeruginosa BA. As to the kind of experiment: Experimental systemic septicaemia in the mouse. Particulars: sc, 96 h. It is filed as in vivo. In outline: as §3
A further test concerns S. aureus Schoch. As to the kind of experiment: Experimental systemic septicaemia in the mouse. It counts as in vivo. Particulars: Staphylococcus aureus, sc, 96 h. In outline:
as §3

Take `Cc1cc(SCC2=C(C(=O)[O-])N3C(=O)[C@@H](NC(=O)/C(=N\OCc4ccc(O)c(O)c4)c4csc(N)n4)[C@H]3SC2)n2nc(CS(=O)(=O)c3ccc(O)c(O)c3)nc2n1.[Na+]` [Example 11, (6R,7R)-7-[(Z)-2-(2-amino-4-thiazolyl)-2-[[(3,4-dihydroxybenzyl)oxy]imino]acetamido]-3-[[[2-[[(3,4-dihydroxyphenyl)sulphonyl]methyl]-5-methyl-s-triazolo[1,5-a]pyrimidin-7-yl]thio]methyl]-8-oxo-5-thia-1-azabicyclo[4.2.0]oct-2-ene-2-carboxylic acid sodium salt (1:1)]: the minimal inhibitory concentration (MIC) (usually the least concentration at which growth counts as inhibited) is 0.12 µg/mL against C. freundii 902; 1 µg/mL with E. aerogenes CF153; 2 µg/mL against E. cloacae 908R; 4 µg/mL in the test with E. cloacae 908SSi; 16 µg/mL against E. cloacae P99; under 0.1 µg/mL against E. coli 25922 [1]. Moreover, the minimal inhibitory concentration (MIC) against K. oxytoca 1082 is under 0.1 µg/mL; in the test with K. pneumoniae 418 it was under 0.1 µg/mL; against P. aeruginosa 27853, under 0.1 µg/mL; against P. aeruginosa 799/61 it was under 0.1 µg/mL; against P. aeruginosa 799/WT, 0.12 µg/mL; in the test with P. aeruginosa BA, 0.12 µg/mL. For the same molecule, the minimum inhibitory concentration (MIC) against P. aeruginosa MK1184 was under 0.1 µg/mL; in the test with P. mirabilis 2117 it was 0.12 µg/mL; in the test on P. vulgaris 1028, 0.25 µg/mL; in the test on S. aureus 6538, 8 µg/mL; against S. marcescens 69438, 0.25 µg/mL; against S. pyogenes 15 it was 2 µg/mL. Besides, the ED50 (in general, the dose that gives a 50% effect, or the effect in half of the subjects) is under 0.05 mg/kg with E. coli 25922 [2], 0.035 mg/kg in [3] and 3.5 mg/kg with S. aureus Schoch.
